Laboratory results as given in US7531577B2, “Arylsulfonamidyl tetralin derivatives and uses thereof” (Roche Palo Alto LLC, priority 2006, dated 2009).
Counter-ions that a name gives are not always drawn.

Biological target: T1, recombinant human 5-HT6 receptor (Homo sapiens, UniProt P50406)
T1 construct: expressed in transfected cells; membranes
Experiment: Radioligand binding, [3H]LSD competition in membranes of HEK293 cells expressing 5-HT6
Details: [3H]LSD displacement, pH 7.4, 37° C., read-out: pKi for 5-HT6 (converted)
Procedure: The binding activity of compounds of this invention in vitro was determined as follows. Duplicate determinations of 5-HT6 ligand affinity were made by competing for binding of [^3H]LSD in cell membranes derived from HEK293 cells stably expressing recombinant human 5-HT6 receptor. Duplicate determinations of 5-HT2A ligand affinity were made by competing for binding of [^3H]Ketanserin (3-(2-(4-(4-fluorobenzoyl)piperidinol)ethyl)-2,4(1H,3H)-quinazolinedione) in cell membranes derived from CHO-K1 cells stably expressing recombinant human 5-HT2A receptor. Membranes were prepared from HEK 293 cell lines by the method described by Monsma et al., Molecular Pharmacology, Vol. 43 pp. 320-327 (1993), and from CHO-K1 cell lines as described by Bonhaus et al., Br J Pharmacol. June; 115(4):622-8 (1995).
For estimation of affinity at the 5-HT6 receptor, all determinations were made in assay buffer containing 50 mM Tris-HCl, 10 mM MgSO4, 0.5 mM EDTA, 1 mM ascorbic acid, pH 7.4 at 37° C., in a 250 microliter reaction volume. […]
Assay tubes containing [^3H] […] LSD or [^3H]Ketanserin were determined as radioactive counts per minute using Packard TopCount.
Displacement of [^3H]LSD or [^3H]Ketanserin from the binding sites was quantified by fitting concentration-binding data to a 4-parameter logistic equation: […]

T1 sequence (P50406 whole entry): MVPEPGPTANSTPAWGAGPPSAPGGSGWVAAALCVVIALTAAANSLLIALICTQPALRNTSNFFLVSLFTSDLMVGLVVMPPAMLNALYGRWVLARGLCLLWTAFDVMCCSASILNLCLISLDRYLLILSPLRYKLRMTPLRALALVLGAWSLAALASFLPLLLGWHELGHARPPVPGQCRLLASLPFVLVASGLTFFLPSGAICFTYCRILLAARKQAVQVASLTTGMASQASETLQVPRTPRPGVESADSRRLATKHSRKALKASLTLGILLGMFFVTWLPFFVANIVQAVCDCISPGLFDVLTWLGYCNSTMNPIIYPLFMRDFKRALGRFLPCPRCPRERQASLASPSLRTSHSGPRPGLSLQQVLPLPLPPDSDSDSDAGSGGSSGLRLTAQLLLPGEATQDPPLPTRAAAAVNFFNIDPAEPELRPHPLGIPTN

Ki	SMILES
~0.138 nM	CNCC1CCCc2cc(NS(=O)(=O)c3ccccc3)ccc21 (stereo not shown) [N-(5-Methylaminomethyl-5,6,7,8-tetrahydro-naphthalen-2-yl)-benzenesulfonamide]

System: not given
Experiment: not given
Details: not given

melting point	SMILES
162 to 163 °C	NC(=O)NCC1CCCc2cc(NS(=O)(=O)c3cccc(F)c3)ccc21 (stereo not shown) [Compound 6, 3-Fluoro-N-(5-ureidomethyl-5,6,7,8-tetrahydro-naphthalen-2-yl)-benzenesulfonamide]
136 to 137 °C	CC(=O)NCC1CCCc2cc(NS(=O)(=O)c3cccc(F)c3)ccc21 (stereo not shown) [Compound 8, N-[6-(3-Fluoro-benzenesulfonylamino)-1,2,3,4-tetrahydro-naphthalen-1-ylmethyl]-acetamide]
164 to 165 °C	NCC1CCCc2cc(NS(=O)(=O)c3ccccc3)ccc21 (stereo not shown) [Compound 2, N-(5-Aminomethyl-5,6,7,8-tetrahydro-naphthalen-2-yl)-benzenesulfonamide]
135 to 136 °C	CNCC1CCCc2cc(NS(=O)(=O)c3cccc(F)c3)ccc21 (stereo not shown) (as salt: oxalate) [Compound 5, 3-Fluoro-N-(5-methylaminomethyl-5,6,7,8-tetrahydro-naphthalen-2-yl)-benzenesulfonamide]
176 to 177 °C	CN(c1ccc2c(c1)CCCC2CN)S(=O)(=O)c1cccc(F)c1 (stereo not shown) (as salt: oxalate) [Compound 9, N-(5-Aminomethyl-5,6,7,8-tetrahydro-naphthalen-2-yl)-3-fluoro-N-methyl-benzenesulfonamide]
143 to 144 °C	O=CNCC1CCCc2cc(NS(=O)(=O)c3cccc(F)c3)ccc21 (stereo not shown) [Compound 7, 3-Fluoro-N-(5-formylaminomethyl-5,6,7,8-tetrahydro-naphthalen-2-yl)-benzenesulfonamide]
